For experiment [1], the system named is HCT116 human colorectal carcinoma cells. Description: CellTiter-Glo Luminescent Cell Viability Assay. It counts as cell-based. As to conditions: HCT-116, 72 h, 3 days. The procedure, abridged: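 HCT116 cells were exposed for 3 days to compound in triplicate at final concentrations of 5 to 0.0002 […] (1:3 dilutions). Viability was read by CellTiter-Glo luminescence, and IC50 values were calculated.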
A general note: In ATP-based viability assays light output follows the ATP content of the culture.

The target in experiment [2] is T1, DDB1DB/DCAF15 and RBM39 R1R2 complex (Homo sapiens, UniProt Q14498+Q66K64).
T1 construct: Amino acids 150 to 331 of RBM39 were cloned into pGEX4T3; GST (from vector pGEX4T3); TEV cleavage site (N); made in house; host or cells: DDB1DB/His-DCAF15: baculovirus/Sf9 co-expression; RBM39 R1R2: E. coli (pGEX4T3)
Description: DCAF15 RBM39 Complex Formation Assay (FRET). Type of experiment: binding. The note with it: FRET ratio Em 665/Em 615, incubated overnight at 4° C. The procedure, abridged: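 Ternary complex formation read by TR-FRET (Em 665/615, excitation 340 nm) after overnight incubation at 4° C of 20 nM baculovirus DDB1DB/His-DCAF15 and 50 nM E. coli RBM39 RRM1-RRM2 FLAG fragment with 14-point, 3-fold compound dilutions from 1 μM; EC50 from 4-parameter fit.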

32 compounds from patent US20250368627A1, “PYRAZOLESULFONAMIDES AS ANTITUMOR AGENTS” (Peloton Therapeutics, Inc., a fully owned subsidiary of …, priority 2019, published 2025) can be followed below.

Molecules are shown by their SMILES. Some results are limits rather than exact numbers.

T1 sequence (Q66K64 whole entry, the tested form may be a part): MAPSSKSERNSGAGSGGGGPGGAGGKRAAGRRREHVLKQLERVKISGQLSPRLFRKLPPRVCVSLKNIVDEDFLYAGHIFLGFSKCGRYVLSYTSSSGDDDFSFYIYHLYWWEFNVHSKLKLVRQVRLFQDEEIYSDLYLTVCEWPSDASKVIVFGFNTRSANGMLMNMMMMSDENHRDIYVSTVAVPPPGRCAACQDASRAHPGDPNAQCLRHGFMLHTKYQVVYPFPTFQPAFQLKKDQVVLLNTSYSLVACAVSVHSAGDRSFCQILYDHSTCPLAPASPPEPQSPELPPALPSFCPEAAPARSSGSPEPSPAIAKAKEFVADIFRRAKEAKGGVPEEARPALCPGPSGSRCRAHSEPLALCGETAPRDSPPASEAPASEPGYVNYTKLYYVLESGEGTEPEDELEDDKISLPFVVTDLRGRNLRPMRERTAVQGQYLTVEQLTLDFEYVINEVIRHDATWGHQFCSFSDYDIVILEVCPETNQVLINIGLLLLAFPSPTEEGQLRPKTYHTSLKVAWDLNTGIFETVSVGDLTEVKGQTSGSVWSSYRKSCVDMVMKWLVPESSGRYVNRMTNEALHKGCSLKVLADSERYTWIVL
T1 sequence (Q14498 150-331): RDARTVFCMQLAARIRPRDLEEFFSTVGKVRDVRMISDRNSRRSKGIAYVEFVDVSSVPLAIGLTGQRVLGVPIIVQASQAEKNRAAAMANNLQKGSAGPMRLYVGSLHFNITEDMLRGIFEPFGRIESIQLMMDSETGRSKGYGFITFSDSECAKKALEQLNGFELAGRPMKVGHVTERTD
T1 sequence (Q16531 with tags, fused parts or gaps DEL396-708 partner): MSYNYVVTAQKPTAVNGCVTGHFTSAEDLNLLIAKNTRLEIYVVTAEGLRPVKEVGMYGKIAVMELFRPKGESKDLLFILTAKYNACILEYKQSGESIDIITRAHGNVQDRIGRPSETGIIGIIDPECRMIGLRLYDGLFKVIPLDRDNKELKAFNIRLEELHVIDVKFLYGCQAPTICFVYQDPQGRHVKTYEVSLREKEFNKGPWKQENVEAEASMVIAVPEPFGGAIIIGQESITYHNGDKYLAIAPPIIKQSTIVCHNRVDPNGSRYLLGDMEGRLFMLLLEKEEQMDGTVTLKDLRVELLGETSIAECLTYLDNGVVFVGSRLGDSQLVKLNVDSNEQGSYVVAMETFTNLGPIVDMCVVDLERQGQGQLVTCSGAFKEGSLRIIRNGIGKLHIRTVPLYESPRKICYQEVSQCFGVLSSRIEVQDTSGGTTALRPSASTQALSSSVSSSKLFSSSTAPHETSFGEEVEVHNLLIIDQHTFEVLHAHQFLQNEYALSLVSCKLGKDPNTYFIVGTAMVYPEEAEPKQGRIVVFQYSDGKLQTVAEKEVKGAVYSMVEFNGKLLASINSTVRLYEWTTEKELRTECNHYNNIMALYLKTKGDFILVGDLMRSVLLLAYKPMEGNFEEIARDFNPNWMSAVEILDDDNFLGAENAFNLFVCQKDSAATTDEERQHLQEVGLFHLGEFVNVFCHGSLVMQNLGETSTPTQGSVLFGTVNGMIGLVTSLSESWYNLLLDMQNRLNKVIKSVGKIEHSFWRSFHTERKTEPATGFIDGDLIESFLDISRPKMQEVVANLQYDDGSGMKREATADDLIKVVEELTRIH

The term EC50 denotes the concentration at which the effect is half-maximal. Usually IC50 stands for the point on the concentration scale where inhibition reaches its midpoint. In the case of `Cc1ccc(NS(=O)(=O)c2cnn(S(=O)(=O)CF)c2)c2[nH]cc(C#N)c12` [Compound 100, N-(3-cyano-4-methyl-1H-indol-7-yl)-1-(fluoromethylsulfonyl)pyrazole-4-sulfonamide], the EC50 in experiment [1] fell in the range of 250 to 1000 nM. Also, the IC50 in experiment [2] was less than 250 nM.
Taken in the same sequence, the figures for `Cc1ccc(NS(=O)(=O)c2cnn(S(=O)(=O)c3ccccc3)c2)c2[nH]cc(C#N)c12` [Compound 101, 1-(benzenesulfonyl)-N-(3-cyano-4-methyl-1H-indol-7-yl)pyrazole-4-sulfonamide] were 250 to 1000 nM and less than 250 nM.
Turning to `CCn1ncc(S(=O)(=O)Nc2ccc(C)c3c(C#N)c[nH]c23)c1F` [Compound 102, N-(3-Cyano-4-methyl-1H-indol-7-yl)-1-ethyl-5-fluoro-pyrazole-4-sulfonamide], in experiment [1], the EC50 was less than 250 nM. Besides, the IC50 in experiment [2] was less than 250 nM.
For the compound `O=S(=O)(Nc1ccc(C(F)(F)F)c2c(Cl)c[nH]c12)c1cnn(CC(F)F)c1` [Compound 103, N-[3-chloro-4-(trifluoromethyl)-1H-indol-7-yl]-1-(2,2-difluoroethyl)pyrazole-4-sulfonamide], in experiment [1], the EC50 is greater than 1000 nM. For the same compound, in experiment [2], the IC50 is less than 250 nM.
Taken in the same sequence, the figures for `N#Cc1c[nH]c2c(NS(=O)(=O)c3cnn(CC(F)F)c3)ccc(C(F)(F)F)c12` [Compound 104, N-[3-cyano-4-(trifluoromethyl)-1H-indol-7-yl]-1-(2,2-difluoroethyl)pyrazole-4-sulfonamide] were 250 to 1000 nM and less than 250 nM.
Taken in the same sequence, the figures for `Cn1cc(S(=O)(=O)Nc2ccc(C(F)(F)F)c3c(C#N)c[nH]c23)cn1` [Compound 105, N-[3-cyano-4-(trifluoromethyl)-1H-indol-7-yl]-1-methyl-pyrazole-4-sulfonamide] were 250 to 1000 nM and less than 250 nM.
As to `Cc1ccc(NS(=O)(=O)c2cnn(CC3(CO)COC3)c2)c2[nH]cc(C#N)c12` [Compound 106, N-(3-cyano-4-methyl-1H-indol-7-yl)-1-[[3-(hydroxymethyl)oxetan-3-yl]methyl]pyrazole-4-sulfonamide], in experiment [1], the EC50 was 250 to 1000 nM. Also, the IC50 in experiment [2] was less than 250 nM.
Taken in the same sequence, the figures for `Cc1ccc(NS(=O)(=O)c2cnn(C3(C)COC3)c2)c2[nH]cc(C#N)c12` [Compound 107, N-(3-cyano-4-methyl-1H-indol-7-yl)-1-(3-methyloxetan-3-yl)pyrazole-4-sulfonamide] were less than 250 nM and less than 250 nM.
Taken in the same sequence, the figures for `Cc1ccc(NS(=O)(=O)c2cnn(CC(C)(C)O)c2)c2[nH]cc(C#N)c12` [Compound 108, N-(3-Cyano-4-methyl-1H-indol-7-yl)-1-(2-hydroxy-2-methyl-propyl)pyrazole-4-sulfonamide] were 250 to 1000 nM and less than 250 nM.
Taken in the same sequence, the figures for `Cc1ccc(NS(=O)(=O)c2cnn(C3CC(F)(F)C3)c2)c2[nH]cc(C#N)c12` [Compound 109, N-(3-cyano-4-methyl-1H-indol-7-yl)-1-(3,3-difluorocyclobutyl)pyrazole-4-sulfonamide] were 250 to 1000 nM and less than 250 nM.
Turning to `[2H]C([2H])([2H])n1cc(S(=O)(=O)Nc2ccc(C)c3c(C#N)c[nH]c23)cn1` [Compound 110, N-(3-Cyano-4-methyl-1H-indol-7-yl)-1-(trideuteriomethyl)pyrazole-4-sulfonamide], in experiment [1], the EC50 was 250 to 1000 nM. For the same compound, in experiment [2], the IC50 is less than 250 nM.
Consider `Cc1ccc(NS(=O)(=O)c2cnn(C3CC(F)C3)c2)c2[nH]cc(C#N)c12` (stereo not shown) [Compound 111, N-(3-cyano-4-methyl-1H-indol-7-yl)-1-(3-fluorocyclobutyl)pyrazole-4-sulfonamide], for which the EC50 in experiment [1] is 250 to 1000 nM. In experiment [2], the IC50 is less than 250 nM.
Taken in the same sequence, the figures for `Cc1ccc(NS(=O)(=O)c2cnn(C)c2F)c2[nH]cc(C#N)c12` [Compound 112, N-(3-cyano-4-methyl-1H-indol-7-yl)-5-fluoro-1-methyl-pyrazole-4-sulfonamide] were 250 to 1000 nM and less than 250 nM.
With `Cc1ccc(NS(=O)(=O)c2cnn(C)c2C)c2[nH]cc(C#N)c12` [Compound 113, N-(3-cyano-4-methyl-1H-indol-7-yl)-1,5-dimethyl-pyrazole-4-sulfonamide], in experiment [1], the EC50 is less than 250 nM. The IC50 in experiment [2] is less than 250 nM.
As for `Cc1nn(C)cc1S(=O)(=O)Nc1ccc(C)c2c(C#N)c[nH]c12` [Compound 114, N-(3-cyano-4-methyl-1H-indol-7-yl)-1,3-dimethyl-pyrazole-4-sulfonamide], the EC50 in experiment [1] lay within 250 to 1000 nM. Besides, in experiment [2], the IC50 was less than 250 nM.
For `CC1(n2cc(S(=O)(=O)Nc3ccc(Cl)c4c(Cl)c[nH]c34)cn2)COC1` [Compound 115, N-(3,4-Dichloro-1H-indol-7-yl)-1-(3-methyloxetan-3-yl)pyrazole-4-sulfonamide], in experiment [1], the EC50 is less than 250 nM. The IC50 in experiment [2] was less than 250 nM.
With `Cc1ccc(NS(=O)(=O)c2cnn(C3(CO)COC3)c2)c2[nH]cc(C#N)c12` [Compound 116, N-(3-cyano-4-methyl-1H-indol-7-yl)-1-[3-(hydroxymethyl)oxetan-3-yl]pyrazole-4-sulfonamide], the EC50 in experiment [1] was in the range of 250 to 1000 nM. Further, the IC50 in experiment [2] was less than 250 nM.
Taken in the same sequence, the figures for `Cc1ccc(NS(=O)(=O)c2cnn(C3(CF)COC3)c2)c2[nH]cc(C#N)c12` [Compound 117, N-(3-cyano-4-methyl-1H-indol-7-yl)-1-[3-(fluoromethyl)oxetan-3-yl]pyrazole-4-sulfonamide] were less than 250 nM and less than 250 nM.
Taken in the same sequence, the figures for `CC1(n2cc(S(=O)(=O)Nc3ccc(Cl)c4c(C#N)c[nH]c34)cn2)COC1` [Compound 118, N-(4-chloro-3-cyano-1H-indol-7-yl)-1-(3-methyloxetan-3-yl)pyrazole-4-sulfonamide] were less than 250 nM and less than 250 nM.
Take `N#Cc1c[nH]c2c(NS(=O)(=O)c3cnn(C(F)F)c3)ccc(Cl)c12` [Compound 119, N-(4-chloro-3-cyano-1H-indol-7-yl)-1-(difluoromethyl)pyrazole-4-sulfonamide]: the concentration giving a half-maximal response (EC50) in experiment [1] was less than 250 nM. Moreover, the IC50 in experiment [2] was less than 250 nM.
For the compound `N#Cc1c[nH]c2c(NS(=O)(=O)c3cnn(CC(F)(F)F)c3)ccc(Cl)c12` [Compound 120, N-(4-chloro-3-cyano-1H-indol-7-yl)-1-(2,2,2-trifluoroethyl)pyrazole-4-sulfonamide], the EC50 in experiment [1] is less than 250 nM. For the same compound, the IC50 in experiment [2] was less than 250 nM.
As to `N#Cc1c[nH]c2c(NS(=O)(=O)c3cn[nH]c3)ccc(Cl)c12` [Compound 121, N-(4-chloro-3-cyano-1H-indol-7-yl)-1H-pyrazole-4-sulfonamide], the EC50 in experiment [1] was in the range of 250 to 1000 nM. Moreover, in experiment [2], the IC50 was less than 250 nM.
Taken in the same sequence, the figures for `Cn1ncc(S(=O)(=O)Nc2ccc(Cl)c3c(C#N)c[nH]c23)c1F` [Compound 122, N-(4-chloro-3-cyano-1H-indol-7-yl)-5-fluoro-1-methyl-pyrazole-4-sulfonamide] were less than 250 nM and less than 250 nM.
Taken in the same sequence, the figures for `N#Cc1c[nH]c2c(NS(=O)(=O)c3cnn(CC4CC4)c3)ccc(Cl)c12` [Compound 123, N-(4-chloro-3-cyano-1H-indol-7-yl)-1-(cyclopropylmethyl)pyrazole-4-sulfonamide] were 250 to 1000 nM and less than 250 nM.
Taken in the same sequence, the figures for `N#Cc1c[nH]c2c(NS(=O)(=O)c3cnn(CF)c3)ccc(Cl)c12` [Compound 124, N-(4-chloro-3-cyano-1H-indol-7-yl)-1-(fluoromethyl)pyrazole-4-sulfonamide] were less than 250 nM and less than 250 nM.
As for `N#Cc1c[nH]c2c(NS(=O)(=O)c3cnn(C4COC4)c3)ccc(Cl)c12` [Compound 125, N-(4-chloro-3-cyano-1H-indol-7-yl)-1-(oxetan-3-yl)pyrazole-4-sulfonamide], the EC50 in experiment [1] fell in the range of 250 to 1000 nM. In addition, the IC50 in experiment [2] is less than 250 nM.
Taken in the same sequence, the figures for `Cc1ccc(NS(=O)(=O)c2cnn(C)c2)c2[nH]cc(F)c12` [Compound 126, N-(3-fluoro-4-methyl-1H-indol-7-yl)-1-methyl-pyrazole-4-sulfonamide] were 250 to 1000 nM and 250 to 1000 nM.
For the compound `CCn1cc(S(=O)(=O)Nc2ccc(Cl)c3c(C#N)c[nH]c23)cn1` [Compound 127, N-(4-chloro-3-cyano-1H-indol-7-yl)-1-ethyl-pyrazole-4-sulfonamide], in experiment [1], the EC50 lay in the range of 250 to 1000 nM. Further, in experiment [2], the IC50 is less than 250 nM.
Taken in the same sequence, the figures for `Cc1ccc(NS(=O)(=O)c2cnn(C3(C)COC3)c2F)c2[nH]cc(C#N)c12` [Compound 128, N-(3-cyano-4-methyl-1H-indol-7-yl)-5-fluoro-1-(3-methyloxetan-3-yl)pyrazole-4-sulfonamide] were less than 250 nM and less than 250 nM.
Taken in the same sequence, the figures for `Cn1cc(S(=O)(=O)Nc2cccc3c(Cl)c(F)[nH]c23)cn1` [Compound 129, N-(3-chloro-2-fluoro-1H-indol-7-yl)-1-methyl-pyrazole-4-sulfonamide] were greater than 1000 nM and less than 250 nM.
Consider `CC1(n2ncc(S(=O)(=O)Nc3ccc(Cl)c4c(C#N)c[nH]c34)c2F)COC1` [Compound 130, N-(4-chloro-3-cyano-1H-indol-7-yl)-5-fluoro-1-(3-methyloxetan-3-yl)pyrazole-4-sulfonamide], for which the EC50 in experiment [1] lay within 250 to 1000 nM. Also, the IC50 in experiment [2] was less than 250 nM.
For `COC(=O)Cn1cc(S(=O)(=O)Nc2ccc(C)c3c(C#N)c[nH]c23)cn1` [Compound 133, methyl 2-[4-[(3-cyano-4-methyl-1H-indol-7-yl)sulfamoyl]pyrazol-1-yl]acetate], in experiment [1], the EC50 was greater than 1000 nM. The IC50 in experiment [2] was less than 250 nM.
